Laboratory results as given in paper PMC10447463, “Data-mining unveils structure–property–activity correlation of viral infectivity enhancing self-assembling peptides” (Nature Communications, 2023).
Where two headings read alike, the source gives them in different places.

Key:
[1] = Conversion rate (CR) assay with fluorescamine; assay type: physicochemical; design: key to CR: % = 100−100×filtrate/original fluorescence intensity
Experimental: For ATR FT–IR spectroscopy measurements, 200 µL of the respective 1 mg/mL PNF solution was lyophilized and the resulting powder used for measurement. All spectra were recorded on a Bruker Tensor 27 spectrometer with a diamond crystal as ATR element (PIKE MiracleTM, spectral resolution 2 cm^-1). Every sample was measured with 64 scans. Data were analyzed with OriginLab software and calculation of β–sheet content was conducted according to a previous report. TEM. For TEM measurements 5 µL of PNF fibrils (1 mg/mL) were placed on copper grids coated with carbon and formvar layer (300 mesh, Plano GmbH). After 10 min incubation time, the grids were staining with 4% uranyl acetate solution for 2.5 min and washed with water. Measurements were performed on a Jeol 1400 electron microscope with 120 kV acceleration voltage. CR Assay. For the determination of the amount of peptide monomer converting into nanostructures the amine reactive dye fluorescamine was used analogous to a previous reported protocol. Briefly, 100 µL of the preformed PNF solution was centrifuged in a Vivaspin 500 tube (3 kDa MWCO) to separate fibers from free peptide monomer (16200 x g, 4 °C, 45 min). The filtrate and 100 μL of the non-filtered PNF sample were lyophilized and dissolved in 30 μL DMSO. 10 μL of the filtrate and non-filtered DMSO samples were submitted in a black UV Star® 384 microliter well–plates (Greiner bio–one) and 3 μL of the fluorescamine solution (10 mg/mL, DMSO) was added to measure the fluorescence enhancement. After 20 min of incubation at RT, fluorescence was recorded on an Infinite® M1000 PRO microplate reader (Tecan) at λem = 470 nm upon excitation at λex = 365 nm with 10 nm bandwidths and multiple reads per well (3×3). Measurements were repeated in triplicates and averaged with standard deviation. All values were calculated as n-fold fluorescence enhancement (DMSO only as a reference was set to 1). The conversion rate CR was defined according to the equation Eq. (3).3 CR=100−100×fluorescenceintensityfiltrate/fluorescenceintensityoriginal[%]

[2] = assay type: physicochemical; design: key to Fibril / Fibril Formation / TEM 2cat / Fibril: 1 = fibrils present; 0 non-fibrillar structures; details: for Fibril / Fibril Formation: 1 mg/mL, uranyl acetate stain, qualitative
[3] = assay type: physicochemical; details: for ThT Cat. / ThT-Fluorescence (categorical): ThT-active if fluorescence at least twice the control; for Rel. ThT: n-fold ThT fluorescence vs control (PBS, 10% DMSO), 4 µL 1 mg/mL fibrils + 20 µL 50 µM ThT, 15 min RT, ex 440 / em 488 nm, triplicate
Outline: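 Preformed peptide fibrils (1 mg/mL) mixed with 50 µM ThT in PBS, 15 min at RT, fluorescence ex 440/em 488 nm versus PBS blank, triplicates. Zeta potential: peptides at 1 mg/mL in PBS pH 7.4, aged 1 d at RT, diluted in 1 mM KCl, Smoluchowski from electrophoretic mobility.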

[4] = Fig. S7 panel B, conversion rate, fluorescamine assay
[5] = conversion rate, fluorescamine assay
[6] = Fig S10 panel D, fibril category by TEM
[7] = TEM, 1 = fibrils present, 0 = non-fibrillar
[8] = TEM, 1 = fibrils present, 0 = non-fibrillar structures
[9] = category: fibrils present or non-fibrillar
[10] = ThT fluorescence category, 1 if Rel. ThT >2
[11] = FigS12 panel A, fibril category by TEM
[12] = conversion of monomer to nanostructures, 3 kDa MWCO filtration, fluorescamine, ex 365 / em 470 nm, triplicate

Row | Substance | CR / % [1, 4] [%] | CR [1, 5] | TEM 2cat [2, 6] | Fibril ([2]; Fig S10 panel E) | Fibril / Fibril Formation ([2]; TEM) | Fibril [2, 7] | Fibril [2, 8] | TEM 2cat [2, 9] | Tht category (> 2 to blank = +) ([3]; Fig S10 panel D) | ThT Cat. ([3]; Fig S10 panel E) | ThT Cat, ([3]; ThT category, 1 if Rel. ThT >2) | ThT Cat. [3, 10] | ThT Cat. / ThT-Fluorescence (categorical) [3] | ThT Cat. ([3]; ThT category, 1 if Rel. ThT >2) | also measured
1 | RGDSKIKIQIC | 43.4 | 43.38 | 1 | 1 | 1 | 1 | 1 | 1 | 1 (ThT. Cat is 1, if Rel. ThT >2) | 1 (ThT. Cat is 1, if Rel. ThT >2) | 1 (ThT. Cat is 1, if Rel. ThT >2) | 1 (ThT. Cat is 1, if Rel. ThT >2) | 1 (ThT. Cat is 1, if Rel. ThT >2) |  | 
2 | RGDKIKIQINMWQ | 66 | 66 | 1 | 1 | 1 | 1 | 1 | 1 | 0 (ThT-inactive (N-Fold <2)) | 0 (ThT-inactive (N-Fold <2)) | 0 (ThT-inactive (N-Fold <2)) | 0 (ThT-inactive (N-Fold <2)) | 0 (ThT-inactive (N-Fold <2)) |  | 
3 | RGDKIKIQIC | 80 | 80 | 1 | 1 | 1 | 1 | 1 | 1 | 1 (ThT. Cat is 1, if Rel. ThT >2) | 1 (ThT. Cat is 1, if Rel. ThT >2) | 1 (ThT. Cat is 1, if Rel. ThT >2) | 1 (ThT. Cat is 1, if Rel. ThT >2) | 1 (ThT. Cat is 1, if Rel. ThT >2) |  | 
4 | CKIW | 48.3 | 48.26 | 0 | 0 | 0 | 0 | 0 |  | 0 (ThT-inactive (N-Fold <2)) | 0 (ThT-inactive (N-Fold <2)) | 0 (ThT-inactive (N-Fold <2)) |  | 0 (ThT-inactive (N-Fold <2)) | 0 (ThT-inactive (N-Fold <2)) | TEM 2cat [2, 11]: 0; Fibril ([2]; FigS12 panel B, TEM): 0; Tht category (> 2 to blank = +) ([3]; FigS12 panel A): 0 (ThT-inactive (N-Fold <2)); ThT Cat, ([3]; FigS12 panel B): 0 (ThT-inactive (N-Fold <2))
5 | CEIEIQINM | 43 | 43 | 1 | 1 | 1 | 1 | 1 |  | 1 (ThT. Cat is 1, if Rel. ThT >2) | 1 (ThT. Cat is 1, if Rel. ThT >2) | 1 (ThT. Cat is 1, if Rel. ThT >2) | 1 (ThT. Cat is 1, if Rel. ThT >2) | 1 (ThT. Cat is 1, if Rel. ThT >2) |  | TEM 2cat [2, 11]: 1; Fibril ([2]; FigS12 panel B, TEM): 1; Tht category (> 2 to blank = +) ([3]; FigS12 panel A): 1 (ThT. Cat is 1, if Rel. ThT >2); ThT Cat, ([3]; FigS12 panel B): 1 (ThT. Cat is 1, if Rel. ThT >2)
6 | RGDSGGGGGGKIKIQIC | 54.7 | 54.68 | 1 | 1 | 1 | 1 | 1 | 1 | 1 (ThT. Cat is 1, if Rel. ThT >2) | 1 (ThT. Cat is 1, if Rel. ThT >2) | 1 (ThT. Cat is 1, if Rel. ThT >2) | 1 (ThT. Cat is 1, if Rel. ThT >2) | 1 (ThT. Cat is 1, if Rel. ThT >2) |  | 
7 | KIKIQIII | 87 | 87 | 1 | 1 | 1 | 1 | 1 | 1 | 1 (ThT. Cat is 1, if Rel. ThT >2) | 1 (ThT. Cat is 1, if Rel. ThT >2) | 1 (ThT. Cat is 1, if Rel. ThT >2) | 1 (ThT. Cat is 1, if Rel. ThT >2) | 1 (ThT. Cat is 1, if Rel. ThT >2) |  | 
8 | KIKIKIKIWW | 92 | 92 | 0 | 0 | 0 | 0 | 0 | 0 | 1 (ThT. Cat is 1, if Rel. ThT >2) | 1 (ThT. Cat is 1, if Rel. ThT >2) | 1 (ThT. Cat is 1, if Rel. ThT >2) | 1 (ThT. Cat is 1, if Rel. ThT >2) | 1 (ThT. Cat is 1, if Rel. ThT >2) |  | 
9 | CKAKAQANMWQ | 92.5 | 92.45 |  | 0 | 0 | 0 | 0 |  | 0 (ThT-inactive (N-Fold <2)) | 0 (ThT-inactive (N-Fold <2)) | 0 (ThT-inactive (N-Fold <2)) |  | 0 (ThT-inactive (N-Fold <2)) | 0 (ThT-inactive (N-Fold <2)) | CR / % [1, 12]: 92%; TEM 2cat ([2]; Fig S10 panel D): 0; TEM 2cat [2, 11]: 0; Fibril ([2]; FigS12 panel B, TEM): 0; Tht category (> 2 to blank = +) ([3]; FigS12 panel A): 0 (ThT-inactive (N-Fold <2)); ThT Cat, ([3]; FigS12 panel B): 0 (ThT-inactive (N-Fold <2)); Rel. ThT [3]: 1.9
10 | QCKAKAQANMWQ | 89.3 | 89.28 |  | 0 | 0 | 0 | 0 |  | 0 (ThT-inactive (N-Fold <2)) | 0 (ThT-inactive (N-Fold <2)) | 0 (ThT-inactive (N-Fold <2)) |  | 0 (ThT-inactive (N-Fold <2)) | 0 (ThT-inactive (N-Fold <2)) | CR / % [1, 12]: 89%; TEM 2cat ([2]; Fig S10 panel D): 0; TEM 2cat [2, 11]: 0; Fibril ([2]; FigS12 panel B, TEM): 0; Tht category (> 2 to blank = +) ([3]; FigS12 panel A): 0 (ThT-inactive (N-Fold <2)); ThT Cat, ([3]; FigS12 panel B): 0 (ThT-inactive (N-Fold <2)); Rel. ThT [3]: 1.5
11 | RGDKIKIQINMC | 60 | 60 |  |  | 1 | 1 | 1 | 1 |  |  | 0 (ThT-inactive (N-Fold <2)) | 0 (ThT-inactive (N-Fold <2)) | 0 (ThT-inactive (N-Fold <2)) |  | 
12 | KIKIQIC | 51.5 | 51.55 | 1 | 1 | 1 | 1 | 1 | 1 | 1 (ThT. Cat is 1, if Rel. ThT >2) | 1 (ThT. Cat is 1, if Rel. ThT >2) | 1 (ThT. Cat is 1, if Rel. ThT >2) | 1 (ThT. Cat is 1, if Rel. ThT >2) | 1 (ThT. Cat is 1, if Rel. ThT >2) |  | 
13 | QCKIKIQINM | 89.7 | 89.7 |  | 1 | 1 | 1 | 1 | 1 | 1 (ThT. Cat is 1, if Rel. ThT >2) | 1 (ThT. Cat is 1, if Rel. ThT >2) | 1 (ThT. Cat is 1, if Rel. ThT >2) |  | 1 (ThT. Cat is 1, if Rel. ThT >2) | 1 (ThT. Cat is 1, if Rel. ThT >2) | TEM 2cat ([2]; Fig S10 panel D): 1
14 | KFKFQFNM | 94.8 | 94.77 |  | 1 | 1 | 1 | 1 | 1 | 0 (ThT-inactive (N-Fold <2)) | 0 (ThT-inactive (N-Fold <2)) | 0 (ThT-inactive (N-Fold <2)) |  | 0 (ThT-inactive (N-Fold <2)) | 0 (ThT-inactive (N-Fold <2)) | TEM 2cat ([2]; Fig S10 panel D): 1
